According to patent publication US10813894B2, “Methods of inhibiting pain” (The Regents of the University of California, priority 2015, dated 2020):
“Also recorded” adds a separate entry of the source.

Legend:
healthy rats [1] = assay: Intraplantar dimethylcelecoxib (DMCx) induced pain model; assay type: in vivo, rat
Protocol: FIGS. 9A-C illustrate that mechanistically different ER stress inducer dimethylcelecoxib (DMCx) generates a rapid and intense but sEHI and cox-2 inhibitor reversible pain phenotype. (A) DMCx is administered into the midsection of one hind paw in a volume of 10 μL (20 μg). Mechanical withdrawal of ipsi- and contralateral paws are then monitored over a period of 4 h. The withdrawal data are presented as gram force required for inducing a withdrawal reflex response. (B) Intraplantar DMCx induced pain is reversible with sEH inhibitor (1 h prior to Tm, i.p. administration) in a dose dependent manner.

healthy rats [2] = assay: Intraplantar tunicamycin (Tm) induced pain model, mechanical withdrawal; assay type: in vivo, rat
Protocol: (§1) FIGS. 7A-F illustrate that ER stress inducer tunicamycin (Tm) is rapid, intense and selective in generating pain behavior. (A) Tm is administered into the midsection of one hind paw in a volume of 10 μL (20 μg). Mechanical withdrawal of ipsi- and contralateral paws are then monitored over a period of 6 h until the ipsilateral paw measurements returned to baseline values. The withdrawal data are presented as gram force required for inducing a withdrawal reflex response. (B) Decreasing doses of Tm generated less intense allodynia which subsided faster than the highest dose. […] (D) Intraplantar Tm induced pain is reversible with sEH inhibitor (lh prior to Tm, i.p. administration) in a dose dependent manner. (E) Expectedly this pain is reversible with chemical chaperone 4-PBA. The basis for the increase above the baseline threshold in this group is not investigated.

healthy rats [3] = assay: Intraplantar Tm, thermal withdrawal threshold (modified Hargreaves' test); assay type: in vivo, rat
Protocol: as §1

sEH = target: T1, sEH (Homo sapiens, UniProt P34913); assay: Inhibition of sEH, assay not specified; assay type: biochemical
T1 sequence (P34913 1-555): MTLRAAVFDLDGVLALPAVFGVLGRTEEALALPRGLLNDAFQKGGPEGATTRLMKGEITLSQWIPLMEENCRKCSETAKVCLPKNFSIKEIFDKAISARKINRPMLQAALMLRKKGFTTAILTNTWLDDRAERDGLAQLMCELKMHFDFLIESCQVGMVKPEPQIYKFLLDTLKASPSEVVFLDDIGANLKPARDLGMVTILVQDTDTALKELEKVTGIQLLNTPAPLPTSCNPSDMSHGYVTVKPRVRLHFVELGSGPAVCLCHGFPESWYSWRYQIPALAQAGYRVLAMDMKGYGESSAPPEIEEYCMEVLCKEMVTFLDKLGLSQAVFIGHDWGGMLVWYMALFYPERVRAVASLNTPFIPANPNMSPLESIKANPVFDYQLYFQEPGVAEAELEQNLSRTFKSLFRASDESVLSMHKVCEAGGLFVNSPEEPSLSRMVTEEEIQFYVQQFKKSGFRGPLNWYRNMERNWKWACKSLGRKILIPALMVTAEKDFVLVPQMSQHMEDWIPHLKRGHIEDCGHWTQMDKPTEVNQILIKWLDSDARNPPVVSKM
From the text: “Soluble epoxide hydrolase” (“sEH”) is an epoxide hydrolase which in endothelial and smooth muscle cells converts EETs to dihydroxy derivatives called dihydroxyeicosatrienoic acids (“DHETs”). The cloning and sequence of the murine sEH is set forth in Grant et al., J. Biol. Chem. 268(23):17628-17633 (1993). The cloning, sequence, and accession numbers of the human sEH sequence are set forth in Beetham et al., Arch. Biochem. Biophys. […] The amino acid sequence of human sEH is SEQ ID NO.:1, while the nucleic acid sequence encoding the human sEH is SEQ ID NO.:2. […] Unless otherwise specified, as used herein, the terms “soluble epoxide hydrolase” and “sEH” refer to human sEH.
Derivatives of urea are transition state mimetics that form a preferred group of sEH inhibitors. […] Any particular urea derivative or other compound can be easily tested for its ability to inhibit sEH by standard assays, such as those discussed herein. The production and testing of urea and carbamate derivatives as sEH inhibitors is set forth in detail in, for example, Morisseau et al., Proc Natl Acad Sci (USA) 96:8849-8854 (1999).
Any of a number of standard assays for determining epoxide hydrolase activity can be used to determine inhibition of sEH. […] Suitable in vitro assays are described in Zeldin et al., J Biol. Chem. 268:6402-6407 (1993). […]

healthy rats [4] = assay: von Frey mechanical withdrawal threshold in healthy rats; settings: 4-PBA 40 mg/kg
Protocol: Standard nociceptive measurements were performed in all experiments. For the von Frey test an electronic rigid tip instrument was used (IITC, Woodland Hills Calif.). For the thermal nociceptive thresholds the modified Hargreaves' method was used. The baseline withdrawal thresholds before STZ administration were taken as 100% response and all mean nociceptive thresholds were converted to percentage values. Inhibitors were administered by intraperitoneal route after completely dissolving in vehicle PEG400 (1 mL/kg).

type I diabetic rats = assay: STZ induced type I diabetic rat neuropathic pain model, electronic von Frey test; settings: for Drug reduction index: combination of 4-PBA and TPPU, CompuSyn
Protocol: Data are presented as mean±SEM in all subsequent figures throughout the text.
(B) The CompuSyn software was used to construct an isobologram of the interaction. ED50 values calculated for each drug are plotted on x and y-axis respectively. […] (C) Combination index (CI) is reported as the key parameter of the synergistic interaction.
Standard nociceptive measurements were performed in all experiments. For the von Frey test an electronic rigid tip instrument was used (IITC, Woodland Hills Calif.). […] The baseline withdrawal thresholds before STZ administration were taken as 100% response and all mean nociceptive thresholds were converted to percentage values. Inhibitors were administered by intraperitoneal route after completely dissolving in vehicle PEG400 (1 mL/kg).
Results are depicted as mean±SEM. CompuSyn software package was used to quantify the synergy between drugs.

Cc1ccc(C)c(-c2cc(C(F)(F)F)nn2-c2ccc(S(N)(=O)=O)cc2)c1 [DMCx, dimethyl-celecoxib]
Swelling after intraplantar administration (healthy rats [1]): Swelling of the ipsilateral paw

tunicamycin [Tm]
Induction of pain by intraplantar administration (healthy rats [2]; hind paw of healthy rats): induce a significant degree of pain
Swelling after intraplantar administration (healthy rats [2]; intraplantar Tm): Minimal amount of swelling
Mechanical withdrawal threshold after Tm (healthy rats [2]; intraplantar, 20 μg, ipsilateral paw): 25 % of the baseline levels
Heat responses / thermal withdrawal threshold of the ipsilateral paw (healthy rats [3]): rapid and sustained loss of heat responses; also recorded: notable increase in thermal withdrawal threshold

CCCCCCCCCCCCNC(=O)NC12CC3CC(CC(C3)C1)C2 [ADU, N-Adamantyl-N′-dodecyl urea]
Activity on sEH (sEH): particularly high activity

O=C(O)CCCc1ccccc1 [Compound 4-PBA, 4-phenyl butyric acid]
Reversal of Tm induced sensitivity to mechanical stimuli (healthy rats [2]; pre-administration i.p. 1 h prior to Tm, celecoxib 30 mg/kg): reversed; also recorded: reversible
Acute mechanical withdrawal threshold in healthy rats (healthy rats [4]): not antinociceptive; also recorded: does not result in change of acute mechanical withdrawal threshold
Drug reduction index (type I diabetic rats; at ED50): 2.2 fold
Drug reduction index (type I diabetic rats; at ED97): 3.9 fold
Allodynia / antinociception (von Frey withdrawal threshold) (type I diabetic rats; diabetic rats, i.p., 4-PBA 10-100 mg/kg, TPPU 0.01-1 mg/kg): dose and time dependent antinociception occurs within minutes; also recorded: reduce allodynia in a dose and time dependent manner
Antinociceptive efficacy at the highest dose (type I diabetic rats; diabetic rats, systemic delivery, highest dose): full efficacy and rapid onset
Effect on pain-related behavior at 10 mg/kg (type I diabetic rats; type I diabetic rats, 10 mg/kg, 6 h time period): ineffective
